# What was measured:
# Escherichia coli [1] = experiment: Antimicrobial activity against Escherichia coli ATCC 25922 after 48 hrs by broth dilution technique; assay type: functional; details: ATCC 25922, 48 h
# Klebsiella pneumoniae = experiment: Antimicrobial activity against Klebsiella pneumoniae after 48 hrs by broth dilution technique; assay type: functional
# Staphylococcus aureus [2] = experiment: Antimicrobial activity against methicillin-sensitive Staphylococcus aureus ATCC 35556 after 48 hrs by broth dilution technique; assay type: functional; details: ATCC 35556, 48 h
# Staphylococcus aureus [3] = experiment: Antimicrobial activity against methicillin-resistant Staphylococcus aureus ATCC 43866 after 48 hrs by broth dilution technique; assay type: functional; details: ATCC 43866, 48 h
# Candida albicans [4] = experiment: Antimicrobial activity against Candida albicans after 48 hrs by agar dilution method; assay type: functional
# [5] = tested on: Mycobacterium tuberculosis; experiment: Antitubercular activity against Mycobacterium tuberculosis H37Rv after 7 days by Resazurin micro titer assay; assay type: functional; details: 168 h
# Vero = experiment: Cytotoxicity against African green monkey Vero cells assessed as reduction in cell viability after 72 hrs by MTT assay; assay type: cell-based; details: Chlorocebus sabaeus
# Escherichia coli [6] = experiment: Ratio of ciprofloxacin MIC to compound MIC for Escherichia coli ATCC 25922 after 48 hrs by broth dilution technique; assay type: functional
# Candida albicans [7] = experiment: Ratio of Amphotericin B MIC to compound MIC for Candida albicans after 48 hrs by broth dilution technique; assay type: functional
# Staphylococcus aureus [8] = experiment: Ratio of ciprofloxacin MIC to compound MIC for methicillin-resistant Staphylococcus aureus ATCC 43866 after 48 hrs by broth dilution technique; assay type: functional
Compound,MIC (Escherichia coli [1]) [µg/mL],MIC (Klebsiella pneumoniae) [µg/mL],MIC (Staphylococcus aureus [2]) [µg/mL],MIC (Staphylococcus aureus [3]) [µg/mL],MIC (Candida albicans [4]) [µg/mL],MIC [5] [µg/mL],IC50 (Vero) [µM],Ratio (Escherichia coli [6]),Ratio (Candida albicans [7]),Ratio (Staphylococcus aureus [8])
COc1cc(NC(=S)NNC(=O)c2cc([N+](=O)[O-])cn2C)cc(OC)c1OC,0.39,1.56,0.78,1.56,0.78,21.5,392,4,4,–
O=C(NNC(=O)c1cc([N+](=O)[O-])c[nH]1)Nc1ccc(Br)cc1,3.12,3.12,1.56,3.12,3.12,1.1,378,–,–,–
Cc1ccccc1NC(=S)NNC(=O)c1cc([N+](=O)[O-])c[nH]1,1.56,3.12,1.56,3.12,3.12,0.67,462,–,4,–
COc1ccc(OC)c(NC(=O)NNC(=O)c2cc([N+](=O)[O-])c[nH]2)c1,3.12,3.12,1.56,3.12,3.12,14.5,333,–,–,–
O=C(NNC(=O)c1cc([N+](=O)[O-])c[nH]1)NC1CCCC1,3.12,3.12,1.56,3.12,3.12,12.5,231,–,–,–
C=[N+]([O-])c1cc(C(=O)NNC(=O)NCc2ccccc2)n(C)c1,3.12,3.12,1.56,3.12,1.56,51.9,304,–,2,–
O=C(NNC(=S)Nc1ccc(F)cc1)c1cc([N+](=O)[O-])c[nH]1,1.56,3.12,1.56,3.12,3.12,0.56,331,–,4,–
O=C(NNC(=O)c1cc([N+](=O)[O-])c[nH]1)Nc1ccccc1,3.12,3.12,1.56,3.12,3.12,40.6,357,–,–,–
COc1ccc(NC(=O)NNC(=O)c2cc([N+](=O)[O-])cn2C)cc1,1.56,3.12,1.56,3.12,1.56,26.1,328,–,2,–
O=C(NCc1ccccc1)NNC(=O)c1cc([N+](=O)[O-])c[nH]1,6.25,6.25,1.56,3.12,3.12,15.2,348,–,–,–
Cn1cc([N+](=O)[O-])cc1C(=O)NNC(=O)NC1CCCC1,1.56,3.12,1.56,3.12,1.56,38.7,271,–,2,–
COc1ccc(OC)c(NC(=O)NNC(=O)c2cc([N+](=O)[O-])cn2C)c1,1.56,6.25,3.12,6.25,1.56,42.4,429,–,2,–
Cn1cc([N+](=O)[O-])cc1C(=O)NNC(=O)Nc1ccc(Cl)cc1,1.56,3.12,1.56,3.12,1.56,30.5,290,–,2,–
O=C(NCc1ccco1)NNC(=O)c1cc([N+](=O)[O-])c[nH]1,3.12,3.12,1.56,3.12,3.12,0.92,443,–,–,–
O=C(NNC(=S)Nc1ccc(Cl)cc1)c1cc([N+](=O)[O-])c[nH]1,1.56,3.12,1.56,3.12,3.12,1.3,191,–,4,–
O=C(O)c1cn(C2CC2)c2cc(N3CCNCC3)c(F)cc2c1=O [CIPROFLOXACIN],–,1.56,1.56,3.12,–,–,–,–,–,–
COc1ccc(NC(=O)NNC(=O)c2cc([N+](=O)[O-])c[nH]2)cc1,3.12,3.12,1.56,3.12,3.12,2.5,401,–,–,–
C[C@@H]1[C@H](O)[C@@H](C)/C=C/C=C/C=C/C=C/C=C/C=C/C=C/[C@H](O[C@@H]2O[C@H](C)[C@@H](O)[C@H](N)[C@@H]2O)C[C@@H]2O[C@](O)(C[C@@H](O)C[C@@H](O)[C@H](O)CC[C@@H](O)C[C@@H](O)CC(=O)O[C@H]1C)C[C@H](O)[C@H]2C(=O)O [AMPHOTERICIN B],–,–,–,–,3.12,–,–,–,–,–

Compound,MIC (Escherichia coli [1]) [µg/mL],MIC (Klebsiella pneumoniae) [µg/mL],MIC (Staphylococcus aureus [2]) [µg/mL],MIC (Staphylococcus aureus [3]) [µg/mL],MIC (Candida albicans [4]) [µg/mL],MIC [5] [µg/mL],IC50 (Vero) [µM],Ratio (Escherichia coli [6]),Ratio (Candida albicans [7]),Ratio (Staphylococcus aureus [8])
Cn1cc([N+](=O)[O-])cc1C(=O)NNC(=O)NCCc1ccccc1,3.12,6.25,1.56,3.12,1.56,42.1,633,–,2,–
O=C(NCCc1ccccc1)NNC(=O)c1cc([N+](=O)[O-])c[nH]1,6.25,6.25,3.12,6.25,3.12,10.3,220,–,–,–
Cn1cc([N+](=O)[O-])cc1C(=O)NNC(=S)NCc1ccccc1,1.56,3.12,0.78,1.56,1.56,31.9,239,–,2,4
O=C(NNC(=S)Nc1ccccc1F)c1cc([N+](=O)[O-])c[nH]1,1.56,3.12,1.56,3.12,3.12,0.82,471,–,4,–
O=C(NNC(=O)c1cc([N+](=O)[O-])c[nH]1)Nc1ccc(Cl)cc1,3.12,3.12,3.12,6.25,3.12,2,218,–,–,–
O=C(NNC(=S)Nc1ccc([N+](=O)[O-])cc1)c1cc([N+](=O)[O-])c[nH]1,1.56,3.12,1.56,3.12,3.12,0.5,529,–,4,–
Cn1cc([N+](=O)[O-])cc1C(=O)NNC(=S)NCCc1ccccc1,0.78,3.12,0.39,0.78,0.78,23,404,–,4,–
O=C(NNC(=S)NCCc1ccccc1)c1cc([N+](=O)[O-])c[nH]1,3.12,6.25,1.56,3.12,3.12,3.9,281,–,4,–
Cn1cc([N+](=O)[O-])cc1C(=O)NNC(=O)Nc1ccc([N+](=O)[O-])cc1,1.56,3.12,1.56,3.12,1.56,11.9,402,–,2,–
O=C(NNC(=O)c1cc([N+](=O)[O-])c[nH]1)Nc1ccc([N+](=O)[O-])cc1,3.12,3.12,1.56,3.12,3.12,0.8,211,–,–,–
O=C(NNC(=S)NCc1ccccc1)c1cc([N+](=O)[O-])c[nH]1,3.12,6.25,3.12,6.25,3.12,7.3,397,–,4,–
COc1ccc(NC(=S)NNC(=O)c2cc([N+](=O)[O-])c[nH]2)cc1,1.56,3.12,1.56,3.12,3.12,1.3,331,–,4,–
Cn1cc([N+](=O)[O-])cc1C(=O)NNC(=O)Nc1ccc(Br)cc1,1.56,3.12,1.56,3.12,1.56,7.8,602,–,2,–
O=C(NNC(=S)NC1CCCCC1)c1cc([N+](=O)[O-])c[nH]1,1.56,3.12,1.56,3.12,3.12,2.8,204,–,4,–
Cn1cc([N+](=O)[O-])cc1C(=O)NNC(=O)Nc1ccccc1,1.56,3.12,1.56,3.12,1.56,59.2,306,–,2,–
Cn1cc([N+](=O)[O-])cc1C(=O)NNC(=O)NCc1ccco1,1.56,3.12,1.56,3.12,1.56,17,482,–,2,–
NNC(=O)c1ccncc1 [ISONIAZID],–,–,–,–,–,0.4,–,–,–,–
COc1cc(NC(=S)NNC(=O)c2cc([N+](=O)[O-])c[nH]2)cc(OC)c1OC,1.56,3.12,3.12,6.25,3.12,2.7,328,–,4,–

# Reference: ChEMBL document CHEMBL3351318, “Synthesis of novel 4-nitropyrrole-based semicarbazide and thiosemicarbazide hybrids with antimicrobial and anti-tubercular activity” (Bioorg Med Chem Lett, 2014)
